The results in this text go back to patent publication US20100144755A1 (Glaxo Group Limited, priority 2006, published 2010).

SMILES strings stand for the structures.

In the experiment the test system is influx of neutrophils to the lung in LPS-challenged rats. In words: Rat LPS neutrophilia model. The format is in vivo. The note with it: LPS aerosol, intratracheal dosing, in at least one of the range of conditions tested, significance p<0.05. Here is the method:
Rat LPS Neutrophilia Model
The effect of compounds on the influx of neutrophils to the lung in LPS-challenged rats is evaluated as follows. The test compound is suspended in one of the following solutions: 0.5% tween 80/PBS, 0.5% tween 80/saline, 10% EtOH/saline (with pH adjusted to 2.0, or 8.0 with HCl, or unadjusted), Saline @pH 2.0, 6.5 or 8.0, 0.5% Tragacanth, 1% DMSO/20% Encapsin/Saline, or acidified 5% Tragacanth. The suspension process may be aided by the use of a glass homogenizer. For intratracheal administration, the animals are anesthetized with inhaled isoflurane and placed in a supine position, the trachea is intubated with a steel gavage needle (1.5 inch, 22 gauge, small ball) or a Penn-Century Microsprayer Aerosolizer (model IA-1B) and 200 ul of dosing solution is delivered. The animals are visually monitored during the recovery process, which typically occurs within two minutes. It is noted that the test compounds may be alternatively administered via the microsprayer in a dry powder blend with a suitable excipient, such as lactose.
Rats treated with compound or vehicle (15 min-24 hours pretreatment) are exposed to an LPS aerosol (100 ug/ml) for 15 min. Four hours later the rats are euthanized with pentobarbital (100 mg/kg, i.p.) and the airways are lavaged with 5 washes of 5 ml of phosphate buffered saline. The harvested cells are stained (Diffquick) and counted to determine total and differential cell data. […] Inhibition of neutrophil levels relative to no compound controls is calculated based on the differential counts.
The data is obtained as % inhibition using a particular concentration and pretreat time.
For `Cc1ccc(NC(=O)c2ccsc2)cc1-c1nc(NC2CC(C)(C)NC(C)(C)C2)nc2c1ccc(=O)n2-c1c(F)cccc1F` [31(e), N-(3-{8-(2,6-difluorophenyl)-7-oxo-2-[(2,2,6,6-tetramethyl-4-piperidinyl)amino]-7,8-dihydropyrido[2,3-d]pyrimidin-4-yl}-4-methylphenyl)-3-thiophenecarboxamide], the inhibition of neutrophilia entry is reported as “statistically significant inhibition”.

For the molecule `CCCNC(=O)c1ccc(C)c(-c2nc(NCCNC)nc3c2ccc(=O)n3-c2c(F)cccc2F)c1` [56(d), 3-(8-(2,6-difluorophenyl)-2-{[2-(methylamino)ethyl]amino}-7-oxo-7,8-dihydropyrido[2,3-d]pyrimidin-4-yl)-4-methyl-N-propylbenzamide], the inhibition of neutrophilia result is “statistically significant inhibition”.

As for `Cc1ccc(C(=O)Nc2nccs2)cc1-c1nc(NCc2ncc[nH]2)nc2c1ccc(=O)n2-c1c(F)cccc1F` [79(c), 3-{8-(2,6-difluorophenyl)-2-[(1H-imidazol-2-ylmethyl)amino]-7-oxo-7,8-dihydropyrido[2,3-d]pyrimidin-4-yl}-4-methyl-N-1,3-thiazol-2-ylbenzamide], the inhibition of neutrophilia entry was “statistically significant inhibition”.

Regarding `CNC1CCN(c2nc(-c3cc(C(=O)NC(C)C)ccc3C)c3ccc(=O)n(-c4c(F)cccc4F)c3n2)CC1` [113(b), 3-{8-(2,6-difluorophenyl)-2-[4-(methylamino)-1-piperidinyl]-7-oxo-7,8-dihydropyrido[2,3-d]pyrimidin-4-yl}-4-methyl-N-(1-methylethyl)benzamide], the inhibition of neutrophilia entry was “statistically nonsignificant inhibition”. Then `CCN(CC)CCCNc1nc(-c2cc(C(=O)NC(C)C)ccc2C)c2ccc(=O)n(-c3c(F)cccc3F)c2n1` [118(b), 3-[2-{[3-(diethylamino)propyl]amino}-8-(2,6-difluorophenyl)-7-oxo-7,8-dihydropyrido[2,3-d]pyrimidin-4-yl]-4-methyl-N-(1-methylethyl)benzamide], with “statistically nonsignificant inhibition”; and `Cc1ccc(C(=O)NC(C)C)cc1-c1nc(N2CCC(N3CCC(C)CC3)CC2)nc2c1ccc(=O)n2-c1c(F)cccc1F` [163(c), 3-[8-(2,6-difluorophenyl)-2-(4-methyl-1,4′-bipiperidin-1′-yl)-7-oxo-7,8-dihydropyrido[2,3-d]pyrimidin-4-yl]-4-methyl-N-(1-methylethyl)benzamide], with “statistically nonsignificant inhibition”; and `CNCCNc1nc(-c2cc(C(=O)NCC3CC3)ccc2C)c2ccc(=O)n(-c3c(F)cccc3F)c2n1` [Example 4], with “statistically significant inhibition”. Then `Cc1ccc(C(=O)NC2CC2)cc1-c1nc(N2CCC(N)CC2)nc2c1ccc(=O)n2-c1c(F)cccc1F` [Example 22, 3-[2-(4-amino-1-piperidinyl)-8-(2,6-difluorophenyl)-7-oxo-7,8-dihydropyrido[2,3-d]pyrimidin-4-yl]-N-cyclopropyl-4-methylbenzamide], with “statistically significant inhibition”; and `Cc1ccc(C(=O)NC2CC2)cc1-c1nc(NCc2ncc[nH]2)nc2c1ccc(=O)n2-c1c(F)cccc1F` [Example 23, N-cyclopropyl-3-{8-(2,6-difluorophenyl)-2-[(1H-imidazol-2-ylmethyl)amino]-7-oxo-7,8-dihydropyrido[2,3-d]pyrimidin-4-yl}-4-methylbenzamide], with “statistically nonsignificant inhibition”; and `Cc1ccc(C(=O)NCC2CC2)cc1-c1nc(N2CCC(N)CC2)nc2c1ccc(=O)n2-c1c(F)cccc1F` [Example 27, 3-[2-(4-amino-1-piperidinyl)-8-(2,6-difluorophenyl)-7-oxo-7,8-dihydropyrido[2,3-d]pyrimidin-4-yl]-N-(cyclopropylmethyl)-4-methylbenzamide], with “statistically significant inhibition”.
